Series [1] deals with S. aureus. As to the kind of experiment: In vitro antimicrobial experiments with the recombinant hybrid peptide. The format is cell-based, Staphylococcus aureus. The conditions noted are these: recombinant peptide from E. coli fusion expression after acid hydrolysis; not obtained pure. The text has this: To expand the antimicrobial spectrum of thanatin and avoid the toxic effects of melittin, a hybrid antimicrobial peptide was designed according to a previous study (Blondelle and Houghten [1991]). Hemolysis was slightly affected by the removal of C-terminal amino acids of melittin, according to the previous study (Jahnsen et al. [2015]). Four alkaline amino acids (KRKR) are located at the C-terminal amino acids of melittin. The hybrid antimicrobial peptide that includes the full-length of thanatin and the C-terminal of melittin may reveal a stronger and safer antibacterial effect (Leonardo et al. [2012]). The hybrid antimicrobial peptide […]-AGP-[…] was designed using melittin’s C-terminal 15-amino acid mutant GLPL*[…] (L*wild type was A) as the N-terminus and thanatin as the C-terminus and by ligating with AGP to create a hybrid peptide that could inhibit S. aureus without hemolytic activity. The fusion expression of the hybrid peptide was carried out in Escherichia coli by using genetic engineering techniques, and the acid hydrolysis site AP was added to the N-terminus of the hybrid peptide. After the engineered bacteria were fermented, separated, acid-hydrolyzed, and purified, another proline residue was found on the N-terminus of the resulting peptide, that is, […]. […] However, pure hybrid peptide was not obtained due to problems associated with acid hydrolysis. […]

For series [2] the following is noted: thanatin data from the reference; ref Fehlbaum et al. [1996]; cited from earlier work. The text has this: Table 1 Physicochemical properties of hybrid peptide | column: Isoelectric point (pI)
Series [3] relates to S. aureus. The conditions noted are these: ref Fehlbaum et al. [1996]; Mandard et al. [1998]; cited from earlier work. The text has this:
Thanatin, with a primary structure of […], is a type of antimicrobial peptide consisting of 21 amino acid residues. It is found in the insect Podisus maculiventris. […] It is a peptide consisting of 26 amino acids with a primary structure of […]. […] However, its clinical application is limited by its strong toxicity (mainly hemolytic activity), genotoxicity, and influence on gene expression (Gajski et al. [2016]; Wu et al. [2015]). To ...

For “PGLPLLISWIKRKRQQGSKKPVPIIYCNRRTGKCQRM [hybrid peptide expressed as fusion in Escherichia coli, acid-hydrolyzed, with another proline on the N-terminus; not obtained pure]”, the “inhibition of growth of S. aureus” value in series [1] is listed as “inhibited the growth of S. aureus”. As to “GSKKPVPIIYCNRRTGKCQRM [Thanatin, thanatin, antimicrobial peptide of 21 amino acid residues found in the insect Podisus maculiventris]”, the “Isoelectric point (pI)” value in series [2] was 10.48. Moreover, the “inhibition of S. aureus” value in series [3] is given as “does not inhibit S. aureus”.
